This passage reports IC50 results from patent US6303749A, “Agouti and agouti-related peptide analogs” (Amgen Inc., priority 1999, dated 2001).

What is called IC50 is the concentration at which inhibition is half-maximal.

Square brackets hold non-standard residues; d marks the D form. Ends that are not written are not given here. Abu = CC[C@H](N)C(=O)O

In assay [1] the target is T1, human melanocortin-4 (MC-4) receptors (Homo sapiens, UniProt P32245).
T1 construct: expressed in transfected cells; membrane fraction used
The assay is classed as binding. The note with it: HEK 293 cell membranes; about […] 125I-NDP-α-MSH; 180 minutes at 25 C; read-out: hMC4 IC50 (nM) 125I NDP-MSH.

Assay [2] is classed as binding, human. The note with it: Table II; HEK 293 cell membranes; 125I-AGRP 1.10 nM; read-out: hMC3 IC50 (nM) 125I-AGRP.
The target in assay [3] is T2, human melanocortin-3 (MC-3) receptors (Homo sapiens, UniProt P41968).
T2 construct: expressed in transfected cells; membrane fraction used
Description: Melanocortin receptor binding assay, 125I-NDP-alpha-MSH competition, MC-3. The note with it: HEK 293 cell membranes; about […] 125I-NDP-α-MSH; 180 minutes at 25 C; read-out: hMC3 IC50 (nM) 125I NDP-MSH.

The target in assay [4] is T2, human melanocortin-3 (MC-3) receptors. Description: Melanocortin receptor binding assay, 125I-AGRP competition, MC-3. The note with it: Table II; HEK 293 cell membranes; 125I-AGRP 1.10 nM; read-out: hMC3 IC50 (nM) 125I-AGRP.

T2 sequence (P41968 whole entry): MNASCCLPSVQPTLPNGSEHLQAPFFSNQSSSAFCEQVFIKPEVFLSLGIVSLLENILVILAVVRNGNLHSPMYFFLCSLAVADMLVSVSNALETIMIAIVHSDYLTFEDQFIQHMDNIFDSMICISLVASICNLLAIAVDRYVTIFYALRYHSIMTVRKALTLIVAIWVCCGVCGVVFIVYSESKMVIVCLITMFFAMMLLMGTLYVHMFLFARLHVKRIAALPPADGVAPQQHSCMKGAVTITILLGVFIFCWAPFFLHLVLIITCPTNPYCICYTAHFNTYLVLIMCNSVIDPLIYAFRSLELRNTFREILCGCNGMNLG
T1 sequence (P32245 whole entry): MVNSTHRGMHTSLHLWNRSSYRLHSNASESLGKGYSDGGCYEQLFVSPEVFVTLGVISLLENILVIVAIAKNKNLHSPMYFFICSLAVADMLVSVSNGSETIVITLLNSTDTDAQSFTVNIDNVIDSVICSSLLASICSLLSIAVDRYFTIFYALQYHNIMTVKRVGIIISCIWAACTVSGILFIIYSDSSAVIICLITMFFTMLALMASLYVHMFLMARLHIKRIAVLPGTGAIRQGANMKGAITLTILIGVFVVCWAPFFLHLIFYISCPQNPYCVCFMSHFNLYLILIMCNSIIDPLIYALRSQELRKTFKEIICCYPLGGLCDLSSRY

“[Abu][Abu]DPCAT[Abu]YCRFFNAFCY[Abu]RKLGTAMNPCSRT (cysteine pairing not given here) [SEQ ID NO:9]”: the IC50 in assay [1] is 600 nM; in assay [2], 73 nM; in assay [3], more than 1000 nM; in assay [4] it was 700 nM.

Take “C[Abu]DPCAS[Abu]Q[Abu]RFFRSA[Abu]SCRVLSLNC (cysteine pairing not given here) [SEQ ID NO:18]”: the IC50 in assay [1], in assay [2], in assay [3] and in assay [4] was more than 1000 nM in each case.

“RNSCKPPAPA[Abu][Abu]DP[Abu]ASCQCRFFRSACS[Abu]RVL (cysteine pairing not given here) [SEQ ID NO:14]”: the 50% inhibitory concentration (IC50) in assay [1] was more than 1000 nM; in assay [2], 900 nM; in assay [3], more than 1000 nM; in assay [4], more than 1000 nM.

As to “AC[Abu]DP[Abu]AS[Abu]QCRFFRSACSCRVL (cysteine pairing not given here) [SEQ ID NO:16]”, the concentration for half-maximal inhibition (IC50) was more than 1000 nM in assay [1], 280 nM in assay [2], more than 1000 nM in assay [3] and more than 1000 nM in assay [4].

Turning to “RNSCKPPAPAC[Abu]DP[Abu]ASCQCRFFRSACSCRVL (cysteine pairing not given here) [SEQ ID NO:13]”, the IC50 in assay [1] is 1000 nM; in assay [2], 60 nM; in assay [3], more than 1000 nM; in assay [4], more than 1000 nM.
